Reference: patent publication US20260167623A1 (NIKANG THERAPEUTICS, INC., priority 2022, published 2026)

Experiments:
CDK2 [1] = biological target: T1, CDK2 (Homo sapiens, UniProt P24941); assay: High-throughput HTRF measurement of cellular endogenous CDK2 level (degradation, DC50/Dmax) in OVCAR3 cells, 6 h; type: cell-based; conditions: 6 h compound treatment, HTRF total CDK2, read-out: DC50_OVCAR3_6h
T1 construct: High-Throughput Measurement of Cellular Endogenous CDK2; endogenous in cells; host or cells: OVCAR3
Experimental: High-Throughput Measurement of Cellular Endogenous CDK2
Effects of compounds on cellular CDK2 level were monitored by a high-throughput HTRF assay.
To determine half maximal degradation concentration (DC50) and maximum degradation level (Dmax) values of compounds, cellular CDK2 level was measured in 96-well format using HTRF total CDK2 cellular kit (Cat #64CDK2TPEG) from Cisbio.
On Day 1, OVCAR3 cells were seeded into 96-well tissue-culture treated plates at 20,000 cells/well in 200 μL and incubated overnight at 37° C. in CO2 atmosphere. On Day 2 cells were treated with compounds at concentration ranging from 0.03 to 1,000 nM using HP D300 digital dispenser. 6 hours after compound treatment, cell culture media was removed by flicking the plate and tapping the plate against clean paper towel. Immediately 30 μL 1× lysis buffer was supplemented from the kit and added to each well and the plate is incubated at room temperature on shaker for 30 min. After homogenization by pipetting up and down, 8 μL cell lysate from 96-well cell culture plate was transferred to 384-well small volume white detection plate. 2 μL premixed detection solution was added and the plate is covered with sealer. To prepare the detection solution, d2 conjugated-CDK2 antibody and Eu-cryptate conjugated CDK2 antibody were diluted into detection buffer following manufacturer's instruction. Detection plates were incubated overnight at room temperature and read on ClarioStar (BMG Labtech) in TR-FRET mode (665 nM and 620 nM). The TR-FRET ratio (665 nM/620 nM) was plotted against the compound concentration and normalized to DMSO controls (0% degradation) and lysis buffer controls (100% degradation). Half maximal degradation concentration (DC 50) […] were calculated with a four-parameter logistic fit using GraphPad Prism (version 8; La Jolla, CA).
In the table below, AA indicates a DC50 of greater than or equal to 0.5 nM but less than 1 nM; A indicates a DC50 of greater than or equal to 1 nM but less than or equal to 10 nM; B indicates a DC50 of greater than 10 nM but less than or equal to 100 nM; C indicates a DC50 of greater than 100 nM but less than or equal to 1 μM; and D indicates a DC50 of greater than 1 μM […] but less than or equal to 5 μM. NT means not tested.

CDK2 [2] = biological target: T1, CDK2; assay: Inhibition of CDK2: phospho-Rb (S807/811) HTRF measurement in OVCAR3 cells, 24 h; type: cell-based; conditions: 24 h compound treatment, read-out: pRB_OVCAR3_24h
Procedure, shortened: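 IC50 came from a four-parameter fit of DMSO-normalized TR-FRET ratios (665/620 nm) reporting phospho-Rb S807/811. Lysates were taken from OVCAR3 cultures treated 24 h with compound (0.3 to 10,000 nM) and incubated 4 h at room temperature with the antibody pair.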

| SMILES | DC50 (CDK2 [1]) [nM] | IC50 (CDK2 [2]) [nM] |
| --- | --- | --- |
| Cn1nc(N2CCC(=O)NC2=O)c2ccc(C3CCN(Cc4cccc(S(=O)(=O)N5CCC(Nc6ncc(Cl)cn6)CC5)c4)CC3(F)F)cc21 (centres unmarked) [Example 33, 1-(6-(1-(3-((4-((5-chloropyrimidin-2-yl)amino)piperidin-1-yl)sulfonyl)benzyl)-3,3-difluoropiperidin-4-yl)-1-methyl-1H-indazol-3-yl)dihydropyrimidine-2,4(1H,3H)-dione] | 10 to 100 | 100 to 500 |
| Cn1c(=O)n(C2CCC(=O)NC2=O)c2cccc(C3CCN(CC4CCN(c5cc(F)cc(S(=O)(=O)N6CCC(Nc7ncc(Cl)cn7)CC6)c5)CC4)CC3)c21 (centres unmarked) [Example 180, 3-(4-(1-((1-(3-((4-((5-chloropyrimidin-2-yl)amino)piperidin-1-yl)sulfonyl)-5-fluorophenyl)piperidin-4-yl)methyl)piperidin-4-yl)-3-methyl-2-oxo-2,3-dihydro-1H-benzo[d]imidazol-1-yl)piperidine-2,6-dione] | 10 to 100 | 100 to 500 |
| Cn1nc(N2CCC(=S)NC2=O)c2ccc(C3CCN(CC4CCN(c5cccc(S(=O)(=O)N6CCC(Nc7ncc(Cl)cn7)CC6)c5)CC4)CC3)cc21 [Example 239, 1-(6-(1-((1-(3-((4-((5-chloropyrimidin-2-yl)amino)piperidin-1-yl)sulfonyl)phenyl)piperidin-4-yl)methyl)piperidin-4-yl)-1-methyl-1H-indazol-3-yl)-4-thioxotetrahydropyrimidin-2(1H)-one] | 10 to 100 | 100 to 500 |
| Cn1c(=O)n(C2CCC(=O)NC2=O)c2cccc(C3CCN(CC4CCN(c5cccc(S(=O)(=O)N6CCC(Nc7ncc(C(F)(F)F)cn7)CC6)c5)CC4)CC3)c21 (centres unmarked) [Example 107, 3-(3-methyl-2-oxo-4-(1-((1-(3-((4-((5-(trifluoromethyl)pyrimidin-2-yl)amino)-piperidin-1-yl)sulfonyl)phenyl)piperidin-4-yl)methyl)piperidin-4-yl)-2,3-dihydro-1H-benzo[d]imidazol-1-yl)piperidine-2,6-dione] | 1 to 10 | 1 to 100 |
| O=C1CCC(N2Cc3cc(N4CCC(N5CC(Oc6cccc(S(=O)(=O)N7CCC(Nc8ncc(C(F)(F)F)cn8)CC7)c6)C5)CC4)ccc3C2=O)C(=O)N1 (centres unmarked) [Example 92, 3-(1-oxo-5-(4-(3-(3-((4-((5-(trifluoro-methyl)pyrimidin-2-yl)amino)piperidin-1-yl)sulfonyl)phenoxy)azetidin-1-yl)piperidin-1-yl)isoindolin-2-yl)piperidine-2,6-dione] | 1 to 10 | 100 to 500 |
| O=C1CCC(N2Cc3cc(N4CCN(Cc5cccc(S(=O)(=O)N6CCC(Nc7ncc(Cl)cn7)CC6)c5)CC4)c(F)cc3C2=O)C(=O)N1 (centres unmarked) [Example 34, 3-(5-(4-(3-((4-((5-chloropyrimidin-2-yl)amino)piperidin-1-yl)sulfonyl)benzyl)-piperazin-1-yl)-6-fluoro-1-oxoisoindolin-2-yl)piperidine-2,6-dione] | – | 100 to 500 |
| Cn1nc(N2CCC(=O)NC2=O)c2ccc(C3CCN(CC4CCN(c5cccc(S(=O)(=O)N6CCC(Nc7ncc(C(F)(F)F)cn7)CC6)c5)CC4)CC3(F)F)cc21 (centres unmarked) [Example 90, 1-(6-(3,3-difluoro-1-((1-(3-((4-((5-(trifluoromethyl)pyrimidin-2-yl)amino)-piperidin-1-yl)sulfonyl)phenyl)piperidin-4-yl)methyl)piperidin-4-yl)-1-methyl-1H-indazol-3-yl)dihydropyrimidine-2,4(1H,3H)-dione] | – | 100 to 500 |

The next lines start with the values.

| DC50 (CDK2 [1]) [nM] | IC50 (CDK2 [2]) [nM] | SMILES |
| --- | --- | --- |
| 10 to 100 | 1 to 100 | Cn1nc(N2CCC(=O)NC2=O)c2ccc(C3CCN(CC4(C)CCN(c5cccc(S(=O)(=O)N6CCC(Nc7ncc(Cl)cn7)CC6)c5)CC4)CC3)cc21 [Example 206, 1-(6-(1-((1-(3-((4-((5-chloropyrimidin-2-yl)amino)piperidin-1-yl)sulfonyl)phenyl)-4-methylpiperidin-4-yl)methyl)piperidin-4-yl)-1-methyl-1H-indazol-3-yl)dihydropyrimidine-2,4(1H,3H)-dione] |
| 0.5 to 1 | 1 to 100 | Cn1c(=O)n(C2CCC(=O)NC2=O)c2ccc(C3CCN(CC4CCN(c5cc(S(=O)(=O)N6CCC(Nc7ncc(C(F)(F)F)cn7)CC6)ccc5C#N)CC4)CC3)cc21 (centres unmarked) [Example 205, 2-(4-((4-(1-(2,6-dioxopiperidin-3-yl)-3-methyl-2-oxo-2,3-dihydro-1H-benzo[d]imidazol-5-yl)piperidin-1-yl)methyl)piperidin-1-yl)-4-((4-((5-(trifluoromethyl)pyrimidin-2-yl)amino)piperidin-1-yl)sulfonyl)benzonitrile] |
| 1 to 10 | 1 to 100 | Cn1c(=O)n(C2CCC(=O)NC2=O)c2cccc(C3CCN(CC4CCN(c5cc(F)cc(S(=O)(=O)N6CCC(Nc7ncc(OC(F)F)cn7)CC6)c5)CC4)CC3)c21 (centres unmarked) [Example 174, 3-(4-(1-((1-(3-((4-((5-(difluoromethoxy)pyrimidin-2-yl)amino)piperidin-1-yl)sulfonyl)-5-fluorophenyl)piperidin-4-yl)methyl)piperidin-4-yl)-3-methyl-2-oxo-2,3-dihydro-1H-benzo[d]imidazol-1-yl)piperidine-2,6-dione] |
| 10 to 100 | 1 to 100 | N#Cc1ccc(S(=O)(=O)N2CCC(Nc3ncc(Cl)cn3)CC2)cc1N1CCC(CN2CCC(c3cccc4c3oc(=O)n4C3CCC(=O)NC3=O)CC2)CC1 (centres unmarked) [Example 197, 4-((4-((5-chloropyrimidin-2-yl)amino)piperidin-1-yl)sulfonyl)-2-(4-((4-(3-(2,6-dioxopiperidin-3-yl)-2-oxo-2,3-dihydrobenzo[d]oxazol-7-yl)piperidin-1-yl)methyl)piperidin-1-yl)benzonitrile] |
| 10 to 100 | 1 to 100 | Cn1nc(N2CCC(=O)NC2=O)c2ccc(C3CCC(CN4CCN(c5cccc(S(=O)(=O)N6CCC(Nc7ncc(Cl)cn7)CC6)c5)CC4)CC3)cc21 (centres unmarked) [Example 224, 1-(6-(4-((4-(3-((4-((5-chloropyrimidin-2-yl)amino)piperidin-1-yl)sulfonyl)phenyl)piperazin-1-yl)methyl)cyclohexyl)-1-methyl-1H-indazol-3-yl)dihydropyrimidine-2,4(1H,3H)-dione] |
| 10 to 100 | 1 to 100 | Cn1nc(N2CCC(=O)NC2=O)c2ccc(C3CCN(CC4CCN(c5cc(S(=O)(=O)N6CCC(Nc7ncc(Cl)cn7)CC6)ccc5C#N)CC4)CC3)c(F)c21 [Example 150, 4-((4-((5-chloropyrimidin-2-yl)amino)piperidin-1-yl)sulfonyl)-2-(4-((4-(3-(2,4-dioxotetrahydropyrimidin-1(2H)-yl)-7-fluoro-1-methyl-1H-indazol-6-yl)piperidin-1-yl)methyl)piperidin-1-yl)benzonitrile] |
| 100 to 1000 | 1 to 100 | Cn1nc(N2CCC(=O)NC2=O)c2ccc(C3CCN(CCc4cccc(S(=O)(=O)N5CCC(Nc6ncc(C(F)(F)F)cn6)CC5)c4)CC3)cc21 [Example 6, 1-(1-methyl-6-(1-(3-((4-((5-(trifluoromethyl)pyrimidin-2-yl)amino)-piperidin-1-yl)sulfonyl)phenethyl)piperidin-4-yl)-1H-indazol-3-yl)dihydropyrimidine-2,4(1H,3H)-dione] |
